For test [1], the target named is T1, human Melanin concentrating hormone receptor 1 (MCH1r) (Homo sapiens, UniProt Q99705).
T1 construct: expressed in transfected cells; host or cells: CHO-K1
Briefly: MCH1 receptor radioligand binding, membranes from CHO-K1 cells, 125I-MCH. Conditions: CHO-K1 cell membranes expressing human MCH1r, 30° C., 60 minutes, read-out: IC50 in human MCHr binding assay. How it is done: MCH1 Receptor Radioligand Binding.
Assays were performed on membranes prepared from CHO-K1 cells expressing the human Melanin concentrating hormone receptor 1 (MCH1r). Assays were performed in a 96-well plate format in a final reaction volume of 200 μl per well. Each well contained 6 μg of membrane proteins diluted in binding buffer (50 mM Tris, 3 mM MgCl2, 0.05% bovine serum albumin (BSA) and the radioligand ^125I-MCH (IM344 Amersham) was added to give 10 000 cpm (counts per minute) per well. Each well contained 2 μl of the appropriate concentration of competitive antagonist prepared in DMSO and left to stand at 30° C. for 60 minutes. Non-specific binding was determined as that remaining following incubation with 1 μM MCH (Melanin concentrating hormone, H-1482 Bachem). The reaction was terminated by transfer of the reaction to GF/A filters using a Micro96 Harvester (Skatron Instruments, Norway). Filters were washed with assay buffer. Radioligand retained on the filters was quantified using a1450 Microbeta TRILUX (Wallac , Finland).
(§1) Non-specific binding was subtracted from all values determined. Maximum binding was that determined in the absence of any competitor following subtraction of the value determined for non-specific binding. Binding of compounds at various concentrations was plotted according to the equation y=A+((B−A)/1+((C/x)ˆAD))) and IC50 estimated where • A is the bottom plateau of the curve i.e. the final minimum y value • B is the top of the plateau of the curve i.e. the final maximum y value • C is the x value at the middle of the curve. This represents the log EC50 value when A+B=100 • D is the slope factor. x is the original known x values. y is the original known y values.

Test [2] deals with T2, rat Melanin concentrating hormone receptor 1 (MCH1r) (Rattus norvegicus, UniProt P97639).
T2 construct: expressed in transfected cells
T2 sequence (P97639 whole entry): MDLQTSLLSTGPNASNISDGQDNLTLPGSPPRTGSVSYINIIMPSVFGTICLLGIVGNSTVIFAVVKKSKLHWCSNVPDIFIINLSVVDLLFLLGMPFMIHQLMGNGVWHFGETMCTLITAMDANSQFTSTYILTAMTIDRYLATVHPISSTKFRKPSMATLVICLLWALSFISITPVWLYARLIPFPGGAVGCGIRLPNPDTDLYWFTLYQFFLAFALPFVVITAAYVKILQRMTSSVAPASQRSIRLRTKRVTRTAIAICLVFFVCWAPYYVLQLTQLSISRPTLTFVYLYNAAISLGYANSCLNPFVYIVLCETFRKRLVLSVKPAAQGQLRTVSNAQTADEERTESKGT
The test can be described thus: MCH1 receptor radioligand binding, membranes from HEK293 cells, 125I-MCH. To be noted: HEK293 cell membranes stably expressing rat MCH1r, room temperature, 60 minutes.
Excerpt: as §1
Assays were also performed on membranes prepared from HEK293 cells stably expressing the rat Melanin concentrating hormone receptor 1 (MCH1r) (Lembo et al. Nature Cell Biol 1 267-271). Assays were performed in a 96-well plate format in a final reaction volume of 200 μl per well. […] Radioligand retained on the filters was quantified using a1450 Microbeta TRILUX (Wallac, Finland).

For six compounds, IC50 results are on record in patent publication US20070185079A1, “Therapeutic agents I” (ASTRAZENECA AB, priority 2004, published 2007).

Broadly, the IC50 is the concentration needed to halve the response being measured.

T1 sequence (Q99705 whole entry): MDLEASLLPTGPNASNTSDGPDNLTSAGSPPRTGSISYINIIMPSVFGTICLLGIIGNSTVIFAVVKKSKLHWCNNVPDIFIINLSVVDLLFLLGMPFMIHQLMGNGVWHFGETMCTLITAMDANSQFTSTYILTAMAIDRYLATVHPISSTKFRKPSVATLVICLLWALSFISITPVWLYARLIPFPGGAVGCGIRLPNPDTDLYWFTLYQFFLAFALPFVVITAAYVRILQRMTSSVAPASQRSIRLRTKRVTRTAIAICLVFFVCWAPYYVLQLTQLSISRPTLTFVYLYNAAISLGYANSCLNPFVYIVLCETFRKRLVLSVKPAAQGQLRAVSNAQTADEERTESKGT

In the case of `Cc1cc(N[C@H]2CC[C@H](NCc3cn(C)c4cnccc34)C2)nc2ccc(F)cc12` [Example 35, (1S,3S)-N-(6-Fluoro-4-methylquinolin-2-yl)-N′-[(1-methyl-1H-pyrrolo[2,3-c]pyridin-3-yl)methyl]cyclopentane-1,3-diamine], the IC50 in test [1] was 830 nM.
Consider `Cc1cc(N[C@H]2CC[C@H](NCc3cn(C)c4ccccc34)C2)nc2ccc(F)cc12` [Example 6, (1S,3S)-N-(6-fluoro-4-methylquinolin-2-yl)-N′-[(1-methyl-1H-indol-3-yl)methyl]cyclopentane-1,3-diamine], for which the IC50 in test [2] amounted to 79 nM.
Take `COc1ccc2nc(N3CC4CCC(C3)C4N(C)Cc3ccsc3)cc(C)c2c1` (stereo not drawn) [Example 20, 3-(6-Methoxy-4-methylquinolin-2-yl)-N-methyl-N-(3-thienylmethyl)-3-azabicyclo [3.2.1]octan-8-amine]: in test [1], the IC50 was 560 nM.
Still for that read-out and setting: then `COc1ccc2nc(N[C@H]3CC[C@H](NCc4ccc(-c5cccs5)s4)C3)cc(C)c2c1` [Example 16, (1S,3S)-N-(2,2′-bithien-5-ylmethyl)-N′-(6-methoxy-4-methylquinolin-2-yl)cyclopentane-1,3-diamine], with 94 nM; and `COc1ccc2c(C)cc(N[C@H]3C[C@@H]4C[C@H]3[C@@H](NCc3cn(C)c5ccccc35)C4)nc2c1` [Example 32, (1S,2S,4R,6S)-N-(7-methoxy-4-methylquinolin-2-yl)-N′-[(1-methyl-1H-indol-3-yl)methyl]bicyclo[2.2.1]heptane-2,6-diamine], with 44 nM; and `COc1cc(N[C@H]2CCC[C@H](NCc3ccsc3)C2)nc2ccc(F)cc12` [Example 5, (1S3S)-N-(6-fluoro-4-methoxyquinolin-2-yl)-N′-(3-thienylmethyl)cyclohexane-1,3-diamine], with 26 nM.
